What all share (type): cell-based
The target in assay [1] is T1, human prostanoid FP receptor (Homo sapiens, UniProt P43088).
T1 construct: expressed in transfected cells
Briefly: FLIPR Ca2+ signaling PG antagonist assay, FP stable cell line. The settings on record: HEK-293 EBNA cells, human recombinant FP, no exogenous G-protein; standard agonist 17-phenyl-PGF2α. As for the experimental part:
(§1) The above compounds were tested for PG antagonist activity as follows using human recombinant prostanoid receptor (DP1, EP1-4, FP, IP and TP) stable cell lines: In order to measure the response of Gs and Gi coupled prostanoid receptors as a Ca^2+ signal, chimeric G protein cDNAs were used. Stable cell lines over-expressing human prostanoid DP1, EP1-4, FP, IP, and TP receptors were established as follows:
(§2) Briefly, human prostanoid DP1, EP2, and EP4 receptor cDNAs were co-transfected with chimeric Gqs cDNA containing a haemagglutanin (HA) epitope; human prostanoid EP3 receptors were co-transfected with chimeric Gqi-HA; human EP1, FP, IP, and TP receptor cDNAs were expressed with no exogenous G-proteins. Gqs and Gqi chimeric cDNAs (Molecular Devices, Sunnyvale, Calif., U.S.A.), as well as cDNAs of prostanoid receptors, were cloned into a pCEP4 vector with a hygromycin B selection marker. Transfection into HEK-293 EBNA (Epstein-Barr virus nuclear antigen) cells was achieved by the FuGENE 6 transfection Reagent (Roche Applied Science, Indianapolis, Ind., USA). Stable transfectants were selected according to hygromycin resistance. Because Gqs and Gqi contained an HA epitope, G-protein expression was detected by Western blotting analysis using anti-mouse HA monoclonal antibody and horseradish peroxidase (HRP)-conjugated secondary antibody, while functional expression of prostanoid receptors was detected by FLIPR screening (Matias et al., 2004). These stable cell lines were validated using previously published antagonists at 10 μM against serial dilutions of standard agonists by FLIPR functional assays for Ca^2+ Signaling (as described below).
(§3) Ca^2+ signaling studies were performed using a FLIPR TETRA system (Molecular Devices, Sunnyvale, Calif., USA) in the 384-format. This is a high-throughput instrument for cell-based assays to monitor Ca^2+ signaling associated with GPCRs and ion channels. Cells were seeded at a density of 5×10^4 cells/well in BioCoat poly-D-lysine coated, black wall, clear bottom 384-well plates (BD Biosciences, Franklin lakes, NJ, USA) and allowed to attach overnight in an incubator at 37° C. The cells were then washed twice with HBSS-HEPES buffer (Hanks' balanced salt solution without bicarbonate and phenol red, 20 mM HEPES, pH 7.4) using an ELx405 Select CW Microplate Washer (BioTek, Winooski, Vt., USA). After 60 min of dye-loading in the dark using the Ca^2+-sensitive dye Fluo-4AM (Invitrogen, Carlsbad, Calif., USA), at a final concentration of 2×10^−6M, the plates were washed 4 times with HBSS-HEPES buffer to remove excess dye and leaving 50 μl of buffer in each well. The plates were then placed in the FLIPR TETRA instrument and allowed to equilibrate at 37° C. Compounds were added in a 25 μl volume to each well to give final concentrations of 0.1 μM, 0.3 μM, 1 μM, 3 μM, 10 μM, and 30 μM; or 0.067 μM, 0.1 μM, 0.2 μM, 0.3 μM, 0.67 μM, and 1 μM for cells over-expressing TP receptors. After 4.5 minutes, a 7-point serial dilution of the standard agonist for the corresponding receptor, in a 25 μl volume was injected at the final concentrations from 10^−11M to 10^−5M in 10-fold serial dilution increments for cells expressing human recombinant DP1, EP1, EP2, EP3, EP4, FP, and IP receptors. The dose range for the standard agonist for human recombinant TP receptors was from 10^−12M to 10^−6M. HBSS-HEPES buffer was used as the negative control for the standard agonists. Cells were excited with LED (light emitting diode) excitation at 470-495 nm and emission was measured through an emission filter at 515-575 nm. Assay plates were read for 3.5 minutes using the FLIPR^TETRA. The peak increase in fluorescence intensity was recorded for each well. On each plate, negative controls, dose response of positive controls, and co-treatments of antagonist-agonist for each dose were in triplicates. Standard agonists were as follows: DP=BW 245C, EP1-EP4=PGE2, FP=17-phenyl-PGF2α, IP=Cicaprost, and TP=U-46619. […]

Assay [2] concerns the target T2, human prostanoid TP receptor (Homo sapiens, UniProt P21731).
T2 construct: expressed in transfected cells
T2 sequence (P21731 1-343): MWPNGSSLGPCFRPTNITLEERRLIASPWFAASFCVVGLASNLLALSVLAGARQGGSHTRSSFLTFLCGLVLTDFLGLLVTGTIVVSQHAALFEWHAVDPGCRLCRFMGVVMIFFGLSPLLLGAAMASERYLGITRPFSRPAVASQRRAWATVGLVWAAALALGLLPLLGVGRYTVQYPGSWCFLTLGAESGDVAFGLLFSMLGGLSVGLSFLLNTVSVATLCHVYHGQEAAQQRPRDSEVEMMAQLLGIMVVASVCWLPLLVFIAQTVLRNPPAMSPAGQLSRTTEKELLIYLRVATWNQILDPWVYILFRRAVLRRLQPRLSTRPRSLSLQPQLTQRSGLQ
Briefly: FLIPR Ca2+ signaling PG antagonist assay, TP stable cell line. The conditions noted are these: HEK-293 EBNA cells, human recombinant TP, no exogenous G-protein; standard agonist U-46619. On the procedure:
as §1, §2, §3

In assay [3] the target is T3, human prostanoid DP1 receptor (Homo sapiens, UniProt Q13258).
T3 construct: expressed in transfected cells
T3 sequence (Q13258 1-359): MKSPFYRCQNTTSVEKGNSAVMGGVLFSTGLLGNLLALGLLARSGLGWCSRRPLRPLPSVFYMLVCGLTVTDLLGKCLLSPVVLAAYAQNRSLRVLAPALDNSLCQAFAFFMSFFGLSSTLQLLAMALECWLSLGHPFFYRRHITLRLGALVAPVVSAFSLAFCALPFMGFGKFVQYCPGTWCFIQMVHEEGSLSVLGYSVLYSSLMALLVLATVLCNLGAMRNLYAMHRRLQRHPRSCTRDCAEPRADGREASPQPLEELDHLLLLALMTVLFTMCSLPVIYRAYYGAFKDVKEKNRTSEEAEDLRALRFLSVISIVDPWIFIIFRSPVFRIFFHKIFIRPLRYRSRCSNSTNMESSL
The experiment in a line: FLIPR Ca2+ signaling PG antagonist assay, DP1 stable cell line. The settings on record: HEK-293 EBNA cells, human recombinant DP1 with chimeric Gqs; standard agonist BW 245C; read-out: DP (Kb, PG antagonist activity). On the procedure:
as §1, §2, §3

T1 sequence (P43088 whole entry): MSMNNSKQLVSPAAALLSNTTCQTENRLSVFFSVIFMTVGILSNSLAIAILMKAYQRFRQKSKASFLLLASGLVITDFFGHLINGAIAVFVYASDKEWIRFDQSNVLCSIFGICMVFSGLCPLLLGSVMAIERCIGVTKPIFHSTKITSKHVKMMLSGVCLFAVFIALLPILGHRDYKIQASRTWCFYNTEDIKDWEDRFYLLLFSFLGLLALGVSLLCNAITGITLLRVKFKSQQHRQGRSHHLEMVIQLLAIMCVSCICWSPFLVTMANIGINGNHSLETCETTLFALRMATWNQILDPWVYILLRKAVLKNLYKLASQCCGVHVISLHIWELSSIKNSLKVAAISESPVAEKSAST

Regarding `CCC(CC)COc1ccc(Cl)cc1Cn1ccc2cc(C(=O)O)ccc21` [Example 1, 1-[5-Chloro-2-(2-Ethyl-Butoxy)-Benzyl]-1H-Indole-5-Carboxylic Acid], the antagonist dissociation constant (Kb) (usually the affinity of an antagonist, worked out from how it opposes an agonist) in assay [1] was determined as 560 nM; in assay [2], 150 nM; in assay [3], 2100 nM.

For `CCC(CC)COc1ccc(Cl)cc1Cn1ncc2cc(C(=O)O)ccc21` [Example 2, 1-[5-Chloro-2-(2-Ethyl-Butoxy)-Benzyl]-1H-Indazole-5-Carboxylic ACID], the antagonist equilibrium constant (Kb) is 160 nM in assay [1], 110 nM in assay [2] and 1300 nM in assay [3].

Turning to `CC(C)COc1ccc(Br)cc1Cn1ncc2cc(C(=O)O)ccc21` [Example 4], the Kb in assay [1] turned out to be 20 nM; in assay [2] it was 2 nM; in assay [3], 700 nM.

In the case of `CCC(CC)COc1ccc(Cl)cc1Cn1ncc2ccc(C(=O)O)cc21` [Example 6], the Kb in assay [1] amounted to 2400 nM; in assay [2], 150 nM; in assay [3], 7100 nM.

For the compound `CC(C)COc1ccc(Br)cc1Cn1ncc2c(C(=O)O)cccc21` [Example 7, 1-(5-Bromo-2-Isobutoxy-Benzyl)-1H-Indazole-4-Carboxylic Acid], the antagonist equilibrium constant (Kb) turned out to be 300 nM in assay [1], 20 nM in assay [2] and 1900 nM in assay [3].

For the compound `O=C(O)c1ccc2c(cnn2Cc2cc(Cl)ccc2OCc2ccccc2)c1` [Example 8, 1-(2-Benzyloxy-5-Chloro-Benzyl)-1H-Indazole-5-Carboxylic Acid], the Kb in assay [1] turned out to be 200 nM; in assay [2], 2100 nM; in assay [3] it was 2600 nM.

Turning to `O=C(O)c1ccc2c(cnn2Cc2cc(Cl)ccc2OCc2ccc(Cl)cc2)c1` [Example 9, 1-[5-Chloro-2-(4-Chloro-Benzyloxy)-Benzyl]-1H-Indazole-5-Carboxylic Acid], the Kb is 20 nM in assay [1] and 1200 nM in assay [3]. In addition, the “TP (Kb, PG antagonist activity)” value in assay [2] is reported as “PAgonist”.

Consider `O=C(O)c1ccc2c(cnn2Cc2cc(Cl)ccc2OCC2CCCC2)c1` [Example 10, 1-(5-Chloro-2-Cyclopentylmethoxy-Benzyl)-1H-Indazole-5-Carboxylic Acid], for which the figures for the Kb in assay [1], in assay [2] and in assay [3] were 30 nM, 20 nM and 440 nM, respectively.

On to `O=C(O)c1ccc2c(cnn2Cc2cc(Cl)ccc2OCC2CC2)c1` [Example 11, 1-(5-Chloro-2-Cyclopropylmethoxy-Benzyl)-1H-Indazole-5-Carboxylic Acid], for which the results for the Kb in assay [1], in assay [2] and in assay [3] were 120 nM, 120 nM and 900 nM, respectively.

Consider `O=C(O)c1ccc2c(cnn2Cc2cc(Br)ccc2OCc2ccccc2)c1` [Example 12, 1-(2-Benzyloxy-5-Bromo-Benzyl)-1H-Indazole-5-Carboxylic Acid], for which the Kb amounted to 120 nM in assay [1], 44 nM in assay [2] and 1600 nM in assay [3].

As to `O=C(O)c1ccc2c(cnn2Cc2cc(Br)ccc2OCc2ccc(Cl)cc2)c1` [Example 13, 1-[5-Bromo-2-(4-Chloro-Benzyloxy)-Benzyl]-1H-Indazole-5-Carboxylic Acid], the values for the Kb in assay [1], in assay [2] and in assay [3] were 20 nM, 900 nM and 1200 nM, respectively.

`O=C(O)c1ccc2c(cnn2Cc2cc(Br)ccc2OCC2CCCC2)c1` [Example 14, 1-(5-Bromo-2-Cyclopentylmethoxy-Benzyl)-1H-Indazole-5-Carboxylic Acid]: the Kb came out at 30 nM in assay [1], 600 nM in assay [2] and 600 nM in assay [3].

Consider `O=C(O)c1ccc2c(cnn2Cc2cc(Br)ccc2OCC2CC2)c1` [Example 15, 1-(5-Bromo-2-Cyclopropylmethoxy-Benzyl)-1H-Indazole-5-Carboxylic Acid], for which the antagonist dissociation constant (Kb) in assay [1] came to 130 nM; in assay [2] it was 20 nM; in assay [3], 1800 nM.

`CC(C)COc1ccc(Cl)cc1Cn1cc2cc(C(=O)O)ccc2n1` [Example 16, 2-(5-Chloro-2-Isobutoxy-Benzyl)-2H-Indazole-5-Carboxylic Acid]: the antagonist dissociation constant (Kb) stood at 3000 nM in assay [1], 400 nM in assay [2] and 1500 nM in assay [3].

Consider `CC(C)COc1ccc(Br)cc1Cn1cc2cc(C(=O)O)ccc2n1` [Example 17, 2-(5-Bromo-2-Isobutoxy-Benzyl)-2H-Indazole-5-Carboxylic Acid], for which the Kb turned out to be 2300 nM in assay [1], 3300 nM in assay [2] and 3500 nM in assay [3].

As to `CC(C)COc1ccc(C(F)(F)F)cc1Cn1ncc2cc(C(=O)O)ccc21` [Example 18], the antagonist dissociation constant (Kb) in assay [1] turned out to be 20 nM; in assay [2], 4 nM; in assay [3], 1400 nM.

For the compound `CC1(COc2ccc(Br)cc2Cn2ncc3cc(C(=O)O)ccc32)CC1` [Example 19], the Kb was found to be 16 nM in assay [1], 50 nM in assay [2] and 1200 nM in assay [3].

As to `CC(C)COc1ccc(OC(F)(F)F)cc1Cn1ncc2cc(C(=O)O)ccc21` [Example 20, 1-(2-Isobutoxy-5-Trifluoromethoxy-Benzyl)-1H-Indazole-5-Carboxylic Acid], the results for the antagonist dissociation constant (Kb) in assay [1], in assay [2] and in assay [3] were 13 nM, 50 nM and 500 nM, respectively.

On to `Cc1nn(Cc2cc(Br)ccc2OCC(C)C)c2ccc(C(=O)O)cc12` [Example 21, 1-(5-Bromo-2-Isobutoxy-Benzyl)-3-Methyl-1H-Indazole-5-Carboxylic Acid], for which the Kb in assay [1] turned out to be 30 nM; in assay [2], 13 nM; in assay [3], 100 nM.

With `Cc1nn(Cc2cc(OC(F)(F)F)ccc2OCC(C)C)c2ccc(C(=O)O)cc12` [Example 22, 1-(2-Isobutoxy-5-Trifluoromethoxy-Benzyl)-3-Methyl-1H-Indazole-5-Carboxylic Acid], the antagonist equilibrium constant (Kb) in assay [1] is 140 nM; in assay [2], 5 nM; in assay [3], 1700 nM.

On to `CCC(CC)COc1ccc(Cl)cc1Cn1nc(C)c2cc(C(=O)O)ccc21` [Example 23, 1-[5-Chloro-2-(2-Ethyl-Butoxy)-Benzyl]-3-Methyl-1H-Indazole-5-Carboxylic Acid], for which the antagonist dissociation constant (Kb) in assay [1] stood at 170 nM; in assay [2] it was 1 nM; in assay [3], 900 nM.

Source of the values: patent publication US10988474B2, “Compounds acting at multiple prostaglandin receptors giving a general anti-inflammatory response” (ALLERGAN, INC., priority 2011, dated 2021).
